Key:
human primary NK cells = assay: Gene expression by primary NK cells (real time qPCR, Taqman Assay); type: cell-based
Source text: FIG. 3 Synergistic effects of lunasin and cytokines on gene expression by human primary NK cells. […] One day following the stimulation, the cell pellets were resuspended in Trizol Reagents for total RNA extraction. The first-strand cDNA was synthesized followed by real time qPCR using Taqman Assay with primers for IFNγ(IFNG), granzyme B (GZMB), granulysin (GNLY), chemokine (C-C motif) ligand 3 or CCL3 (CCL3), CCL4 (CCL4). Granulocyte-macrophage colony-stimulating factor or GM-CSF (CSF2) TGFβ (TGFB) and TGFβ receptor (TGFBR2) in ABI 7300 (Applied Biosystems by Life Technologies, Carlsbad CA) Data are presented as mean±SD from 2 duplicates. Results shown are representative over 5 different normal controls. […]
One day following the stimulation, the cell pellets were resuspended in Trizol Reagents for total RNA extraction. The first-strand cDNA was synthesized followed by real time qPCR using Taqman Assay with primers for IFNγ (IFNG), granzyme B (GZMB), granulysin (GNLY), chemokine (C-C motif) ligand 3 or CCL3 (CCL3), CCL4 (CCL4), Granulocyte-macrophage colony-stimulating factor or GM-CSF (CSF2), TGFβ (TGFB) and TGFβ receptor (TGFBR2) in ABI 7300 (Applied Biosystems by Life Technologies, Carlsbad, Calif.). Data are presented as mean±SD from duplicates. Results shown are representative over 5 different normal controls.
Following 1, 2, and 3 days of stimulation, the cell pellets were lysed in Trizol Reagents for total RNA extraction. The first-strand cDNA was synthesized followed by real time qPCR using Taqman Assay with primer for TGFB1 and TGFBR2 in ABI 7300. Results are presented as mean±SD from duplicates. […]
Freshly isolated human NK cells from peripheral blood mononuclear cells (PBMCs) of normal control using positive selection with CD56 magnetic beads (Miltenyi Biotec, Auburn, Calif.) were stimulated with medium only (−), IL-12 (10 ng/ml) or IL-12 (10 ng/ml)+lunasin (5 μM) for 1 day. The cell pellets were lysed in Trizol Reagents for total RNA extraction. The first-strand cDNA was synthesized followed by real time qPCR using Taqman Assay with primer for inhibitory receptors KIR3DL1 (upper panel) and KIR3DL2 (lower panel) in ABI 7300.

[1] = tested on: acetylation of histone H3 and H4; conditions: extracted from autoclaved soybean products or blood of rats fed LES; cited from earlier work
[2] = boiling; cited from earlier work
allergic inflammation = assay: LPS-induced asthma mouse model; type: in vivo, BABL/c mice
Description: FIG. 25 Lunasin-treated mice have reduced allergic inflammation in a mouse model of asthma. In LPS-induced asthma model BABL/c mice were sensitized intranasally with 0.1 μg of LPS at day 0, 1, and 2 with (LS) or without (Ctrl) lunasin peptide at 4 mg, and then challenged with 50 μg of OVA on days 19, 20 and 21. Another group of mice (LC) was sensitized as the Ctrl group followed by challenging with OVA in the presence of lunasin at 4mg. The total cell numbers (A) and differential cell numbers of eosinophils (B) were counted from the BAL fluid. Data are presented as mean±SD from 3 mice in each group. *,P<0.05; ns not-significant p>0.05. (C) Cells from draining lympho nodes (mediastinal) were stimulated with OVA, and the levels of IL-4 production in the supernatants were evaluated using ELISA. Data are presented as mean ±SD from 3 mice in each group. ***, P<0.005; ns, not-significant, p>0.05.
In LPS-induced asthma model, BABL/c mice were sensitized intranasally with 0.1 μg of LPS at day 0, 1, and 2 with (LS) or without (Ctrl) lunasin peptide at 4 mg, and then challenged with 50 ug of OVA on days 19, 20, and 21. […] The total cell numbers (A) and differential cell numbers of eosinophils (B) were counted from the BAL fluid. […] (C) Cells from draining lympho nodes (mediastinal) were stimulated with OVA, and the levels of IL-4 production in the supernatants were evaluated using ELISA. […]

[3] = tested on: NK cells isolated from lungs; assay: Ifng gene expression in lung NK cells of mice gavaged with lunasin; type: in vivo, Balb/c mice; conditions: 4 mg lunasin by gavage for 3 consecutive days
Description: FIG 24 Gene expression of Ifng from mice treated with lunasin. Balb/c mice were gavaged with […] of water only (H2O) or 4 mg of lunasin in […] water (Lunasin) for 3 consecutive days. One day after the last gavage. mice were sacrificed to collect the lungs. NK cells were isolated from lungs of each mouse using positive selection with DX5 magnetic beads (Miltenyi Biotec) followed by RNA extraction, cDNA synthesis and real time qPCR using Taqman assay primers (ABI). Gene expression for IFNg (Ifng) from lungs is presented as mean±SD from 2 mice in each group.
Balb/c mice were gavaged with 200 μl of water only (H2O) or 4 mg of lunasin in 200 μl water (Lunasin) for 3 consecutive days. One day after the last gavage, mice were sacrificed to collect the lungs and spleens. NK cells were isolated from each lung and spleen using positive selection with DX5 magnetic beads (Miltenyi Biotec) followed by RNA extraction, cDNA synthesis and real tune qPCR using Taqman assay primers (ABE). Gene expression for Ifng from lungs (upper panel) and spleens (lower pannel) is presented as mean±SD from 2 mice in each group.

[4] = cited from earlier work

lunasin
CCL3 gene expression (human primary NK cells; 1 day): sufficient to up-regulate | CCL4 gene expression (human primary NK cells; 1 day): sufficient to up-regulate | CSF2 (GM-CSF) gene expression (human primary NK cells; 1 day): sufficient to up-regulate | GMT gene expression (human primary NK cells; 1 day, lunasin alone): no effects | IFNG gene expression (human primary NK cells; human cells, qPCR): moderate effects | bioactivity after autoclaving or feeding (inhibiting acetylation of histone H3 and H4) [1]: still active | heat stability [2]: heat-stable | production of IL-4 (allergic inflammation; draining lymph node cells stimulated with OVA, ELISA): reduced production of IL-4 | cell counts in the bronchoalveolar lavage (BAL) fluid (allergic inflammation; lunasin 4 mg intranasal): lower cell counts | gene expression of Ifng in the lung [3]: increased gene expression of Ifng | distribution of gavaged lunasin ([4]; gavage): can be found in the lung and blood | lunasin levels in the blood after oral consumption ([4]; oral): Significant levels of lunasin could be detected in the blood | survival of digestion in the gastrointestinal tract ([4]; oral): survives digestion in the gastrointestinal tract

Reference: US9173923B2, “Modulating innate immune cell activity by lunasin and selected cytokines” (Indiana University Research & Technology Corporation, priority 2011, dated 2015)
